Drawing on patent publication US5393751A, “Tricyclic carbapenem compounds” (Takeda Chemical Industries, Ltd., priority 1989, dated 1995), this text covers MIC for one compound.

Holding throughout (assay): MIC by agar dilution method
Common to all, as to format: cell-based

One assay concerns P. vulgaris IFO 3988. The conditions noted are these: Proteus vulgaris, IFO3988, 24 h, 10^8 CFU/ml, 37° C. overnight. As for the experimental part:
(§1) The minimal inhibitory concentrations [MIC (μg/ml)] of a representative compound of the invention were determined by the following method.
(§2) Method for MIC determination
(§3) The MIC values of the test compound were determined by the agar dilution method. Thus, 1.0 ml aliquots of serial aqueous dilutions of the test compound were put in petri dishes and 9.0 ml aliquots of Trypticase Soy Agar were added and mixed. Those agar plates were respectively smeared with a suspension (about 10^8 CFU/ml) of the test organism and incubated at 37° C. overnight.

In another assay the test system is E. coli NIHJ T-7. The settings on record: Escherichia coli, NIHJT7, 24 h, 10^8 CFU/ml, 37° C. overnight. How it is done: as §1, §2, §3
For a further assay, the system named is C. diphtheriae Tronto. The settings on record: Corynebacterium diphtheriae, 24 h. As for the experimental part:
as §1, §2, §3

A further assay deals with S. pyogenes E-14. The settings on record: Streptococcus pyogenes, E14, 24 h, 10^8 CFU/ml, 37° C. overnight. How it is done:
as §1, §2, §3

In another assay the test system is P. mirabilis IFO 3849. The conditions noted are these: Proteus mirabilis, IFO3849, 24 h, 10^8 CFU/ml, 37° C. overnight. As for the experimental part:
as §1, §2, §3

A further assay has as its system K. oxytoca TN 1711. The conditions noted are these: Klebsiella oxytoca, TN1711, 24 h, 10^8 CFU/ml, 37° C. overnight. How it is done:
as §1, §2, §3

A further assay has as its system C. freundii TN 474. The settings on record: Citrobacter freundii, TN474, 24 h, 10^8 CFU/ml, 37° C. overnight. As for the experimental part: as §1, §2, §3
In the next assay the test system is S. pneumoniae Type I. The conditions noted are these: Streptococcus pneumoniae, 24 h, 10^8 CFU/ml, 37° C. overnight. As for the experimental part: as §1, §2, §3
For a further assay, the system named is S. marcescens IFO 12648. The settings on record: Serratia marcescens, IFO12648, 24 h, 10^8 CFU/ml, 37° C. overnight. How it is done:
as §1, §2, §3

The test system of the next assay is C. freundii IFO 12681. The conditions noted are these: Citrobacter freundii, IFO12681, 24 h, 10^8 CFU/ml, 37° C. overnight. As for the experimental part:
as §1, §2, §3

A further assay relates to K. pneumoniae DT. The conditions noted are these: Klebsiella pneumoniae, 24 h, 10^8 CFU/ml, 37° C. overnight. How it is done:
as §1, §2, §3

Another assay relates to S. aureus FDA 209P. The settings on record: Staphylococcus aureus, FDA209P, 24 h, 10^8 CFU/ml, 37° C. overnight. As for the experimental part:
as §1, §2, §3

The test system of the next assay is S. mitis America. The settings on record: Streptococcus mitis, 24 h, 10^8 CFU/ml, 37° C. overnight. As for the experimental part: as §1, §2, §3
The test system of another assay is E. coli NIHJ O-111. The settings on record: Escherichia coli, NIHJO111, 24 h, 10^8 CFU/ml, 37° C. overnight. How it is done:
as §1, §2, §3

The test system of a further assay is E. cloacae IFO 12937. The settings on record: Enterobacter cloacae, IFO12937, 24 h, 10^8 CFU/ml, 37° C. overnight. As for the experimental part: as §1, §2, §3
For a further assay, the system named is E. coli NIHJ JC-2. The conditions noted are these: Escherichia coli, NIHJJC2, 24 h, 10^8 CFU/ml, 37° C. overnight. How it is done: as §1, §2, §3
In another assay the test system is M. morganii IFO 3168. The conditions noted are these: Morganella morganii, IFO3168, 24 h, 10^8 CFU/ml, 37° C. overnight. How it is done:
as §1, §2, §3

The subject of a further assay is S. aureus 308A-1. The conditions noted are these: Staphylococcus aureus, 308A1, 24 h, 10^8 CFU/ml, 37° C. overnight. How it is done:
as §1, §2, §3

For another assay, the system named is S. pyogenes S-8. The settings on record: Streptococcus pyogenes, S8, 24 h, 10^8 CFU/ml, 37° C. overnight. As for the experimental part: as §1, §2, §3
The subject of a further assay is S. aureus 1840. The settings on record: Staphylococcus aureus, 24 h, 10^8 CFU/ml, 37° C. overnight. How it is done:
as §1, §2, §3

The test system of another assay is E. cloacae TN 583. The conditions noted are these: Enterobacter cloacae, TN583, 24 h, 10^8 CFU/ml, 37° C. overnight. How it is done:
as §1, §2, §3

With `C[C@@H](O)[C@H]1C(=O)N2C(C(=O)[O-])=C3SCCCC3[C@H]12.[Na+]` (mixture of isomers) [Example 3, Sodium (5S,6S,7RS)-5-[(R)-1-hydroxyethyl]-4-oxo-3-aza-11-thiatricyclo[5.4.0.0^3,6]undec-1-ene-2-carboxylate], the MIC – broadly, the smallest concentration in the dilution series that meets the test's criterion for growth inhibition – is 3.13 µg/mL in the assay on P. vulgaris IFO 3988; 0.2 µg/mL with E. coli NIHJ T-7; < 0.1 µg/mL against C. diphtheriae Tronto; 0.78 µg/mL with S. pyogenes E-14; 1.56 µg/mL in the assay on P. mirabilis IFO 3849; 0.39 µg/mL in the assay on K. oxytoca TN 1711. Moreover, the MIC against C. freundii TN 474 amounted to 1.56 µg/mL; in the assay on S. pneumoniae Type I it was 0.39 µg/mL; with S. marcescens IFO 12648 it was 1.56 µg/mL; in the assay on C. freundii IFO 12681, 0.39 µg/mL; against K. pneumoniae DT, 0.39 µg/mL; in the assay on S. aureus FDA 209P, 0.78 µg/mL. In addition, the minimum inhibitory concentration (MIC) against S. mitis America is 0.78 µg/mL; against E. coli NIHJ O-111, 0.2 µg/mL; in the assay with E. cloacae IFO 12937 it was 0.78 µg/mL; against E. coli NIHJ JC-2, 0.2 µg/mL; in the assay on M. morganii IFO 3168, 3.13 µg/mL; against S. aureus 308A-1, 0.78 µg/mL. In addition, the figures for the MIC with S. pyogenes S-8, against S. aureus 1840 and in the assay with E. cloacae TN 583 were 0.2 µg/mL, 1.56 µg/mL and 0.78 µg/mL, respectively.
